From the NIST ThermoML archive (doi:10.1021/je700662a)
“And” between values parts separate entries of the source, which are not always exact repeats. Equal values may be shown once.

How the values were obtained:
[1] = DTA
[2] = Molar enthalpy of transition or fusion; details: DSC
[3] = molar heat capacity at constant pressure; details: 101.33 kPa, Large sample (1 g) DSC

CC(C)(C)C(N)=O [2,2-dimethylpropanamide]
Crystal
Details | Molar enthalpy of transition or fusion | Normal melting temperature
[1] | – | 152.2 °C and 152.5 °C
[2] | 5.76 kcal/mol and 6.12 kcal/mol | –

[3], Crystal
Details | molar heat capacity at constant pressure [J/K/mol]
188 K | 115.7
193 K | 117.6
198 K | 120.8
203 K | 123
208 K | 124.8
213 K | 126.4
218 K | 129.1
223 K | 131.5
228 K | 133.4
233 K | 136.6
238 K | 137.9
243 K | 140.2
248 K | 142.8
253 K | 144.5
258 K | 147.5
263 K | 149.2
268 K | 150.9
273 K | 153.8
278 K | 156.3
283 K | 158.3
288 K | 161.1
293 K | 163
298 K | 163.7
303 K | 165.4
308 K | 167.9
313 K | 170.2
318 K | 172.7
323 K | 174.2

CC(C)C(N)=O [2-methylpropanamide]
Crystal
Details | Molar enthalpy of transition or fusion | Normal melting temperature
[1] | – | 127.0 °C and 127.2 °C
[2] | 4.59 kcal/mol and 4.61 kcal/mol | –

[3], Crystal
Details | molar heat capacity at constant pressure [J/K/mol]
183 K | 100.8
188 K | 102.9
193 K | 105
198 K | 107.1
203 K | 110.5
208 K | 112.4
213 K | 114
218 K | 115.6
223 K | 118.7
228 K | 120.3
233 K | 122.8
238 K | 124.8
243 K | 127.3
248 K | 130.8
253 K | 132.6
258 K | 134.6
263 K | 137.6
268 K | 138.8
273 K | 141.9
278 K | 144.6
283 K | 146.5
288 K | 148.5
293 K | 150.9
298 K | 152.4
303 K | 154.1
308 K | 158
313 K | 160.2
318 K | 162.7
323 K | 164.5

CCCC(N)=O [butanamide]
Details | Molar enthalpy of transition or fusion, [2] [kcal/mol] | Normal melting temperature, [1] [°C]
Crystal | 4.59 | 114.2
Crystal 1 | 4.68 | 114.2

[3], Crystal
Details | molar heat capacity at constant pressure [J/K/mol]
183 K | 96.4
188 K | 98.3
193 K | 101.7
198 K | 104.1
203 K | 106.4
208 K | 108
213 K | 109.7
218 K | 112.5
223 K | 114.3
228 K | 116
233 K | 118.1
238 K | 120.8
243 K | 123
248 K | 125.9
253 K | 127.4
258 K | 130.2
263 K | 132.4
268 K | 135
273 K | 136.8
278 K | 139.3
283 K | 141.5
288 K | 143.7
293 K | 146.4
298 K | 147.7
303 K | 150.3
308 K | 153.5
313 K | 155
318 K | 158.8
323 K | 161.4

CCCCCCCCCC(N)=O [decanamide]
Details | Molar enthalpy of transition or fusion, Crystal 1 | Molar enthalpy of transition or fusion, Crystal 2 | Molar enthalpy of transition or fusion, Crystal 3 [kcal/mol] | Normal melting temperature, Crystal 1 | Triple point temperature, Crystal 2 | Triple point temperature, Crystal 3
[1] | – | – | – | 97.5 °C and 97.8 °C | 366.3 K and 366.9 K | 218.7 K and 218.7 K
[2] | 3.61 kcal/mol and 4.16 kcal/mol | 4.49 kcal/mol and 5.04 kcal/mol | 0.251 | – | – | –

[3], Crystal 2
Details | molar heat capacity at constant pressure [J/K/mol]
263 K | 236.4
268 K | 238.5
273 K | 247.6
278 K | 251.1
283 K | 260.7
288 K | 266.4
293 K | 270.2
298 K | 272.4
303 K | 278.5
308 K | 287
313 K | 291.6
318 K | 297.9
323 K | 304.4

CCCCCCCCCCCCCCCCCCCCCC(N)=O [docosanamide]
Crystal
Details | Molar enthalpy of transition or fusion | Normal melting temperature
[1] | – | 110.2 °C and 111.8 °C
[2] | 15.1 kcal/mol and 15.5 kcal/mol | –

[3], Crystal
Details | molar heat capacity at constant pressure [J/K/mol]
228 K | 420.4
233 K | 431.8
238 K | 439.8
243 K | 449.2
248 K | 461.3
253 K | 470.1
258 K | 480.5
263 K | 493
268 K | 500.2
273 K | 511.9
278 K | 523.7
283 K | 539.7
288 K | 548.1
293 K | 561.1
298 K | 568.7

CCCCCCCCCCCC(N)=O [dodecanamide]
Details | Molar enthalpy of transition or fusion, [2] | Normal melting temperature, [1] | Triple point temperature, [1]
Crystal 1 | 8.68 kcal/mol and 8.53 kcal/mol | 100.2 °C and 100.7 °C | –
Crystal 2 | 2.32 kcal/mol and 2.15 kcal/mol | – | 321.1 K and 322 K

[3], Crystal 2
Details | molar heat capacity at constant pressure [J/K/mol]
198 K | 213.3
203 K | 217.8
208 K | 223.3
213 K | 227.1
218 K | 231.8
223 K | 237.5
228 K | 242.2
233 K | 245.9
238 K | 251.2
243 K | 258.4
248 K | 263
253 K | 269.2
258 K | 274.3
263 K | 280.8

CCCCCCCCCCCCCCCC(N)=O [hexadecanamide]
Details | Molar enthalpy of transition or fusion, [2] | Normal melting temperature, [1] | Triple point temperature, [1]
Crystal 1 | 10.9 kcal/mol and 10.8 kcal/mol | 103 °C and 102.5 °C | –
Crystal 2 | 2.49 kcal/mol and 2.46 kcal/mol | – | 355.5 K and 356.1 K

[3], Crystal 2
Details | molar heat capacity at constant pressure [J/K/mol]
208 K | 267.5
213 K | 273.7
218 K | 276.5
223 K | 282.8
228 K | 289
233 K | 297.1
238 K | 302.6
243 K | 310.3
248 K | 319.5
253 K | 323.8
258 K | 331.6
263 K | 340.1
268 K | 348.1
273 K | 357.9
278 K | 364.8
283 K | 371.6
288 K | 378.1
293 K | 387.6
298 K | 394.3
303 K | 401.8

CCCCCC(N)=O [hexanamide]
Details | Molar enthalpy of transition or fusion, [2] | Normal melting temperature, [1] | Triple point temperature, [1]
Crystal 1 | 3.99 kcal/mol and 4.21 kcal/mol | 100 °C and 100 °C | –
Crystal 2 | 1.89 kcal/mol | – | 305.1 K and 306 K

[3], Crystal 2
Details | molar heat capacity at constant pressure [J/K/mol]
183 K | 119.1
188 K | 121.1
193 K | 126.6
198 K | 128.6
203 K | 132.5
208 K | 135.8
213 K | 138.8
218 K | 142.1
223 K | 146.7
228 K | 150.8
233 K | 155.3
238 K | 160.1
243 K | 165.6
248 K | 169.6
253 K | 173.1

CCCCCCCCCCCCCCCCCC(N)=O [octadecanamide]
Details | Molar enthalpy of transition or fusion, [2] | Normal melting temperature, [1] | Triple point temperature, [1] [K]
Crystal 1 | 13.1 kcal/mol and 13.2 kcal/mol | 106.6 °C and 107 °C | –
Crystal 2 | 0.526 kcal/mol | – | 298.7

[3], Crystal 2
Details | molar heat capacity at constant pressure [J/K/mol]
208 K | 318.2
213 K | 328.5
218 K | 336.6
223 K | 345.2
228 K | 353.1
233 K | 360.8
238 K | 367.6
243 K | 375.8
248 K | 385.6
253 K | 393.6
258 K | 403.2

CCCCCCCC(N)=O [octanamide]
Details | Molar enthalpy of transition or fusion, Crystal 1 | Molar enthalpy of transition or fusion, Crystal 2 | Molar enthalpy of transition or fusion, Crystal 3 [kcal/mol] | Normal melting temperature, Crystal 1 | Triple point temperature, Crystal 2 | Triple point temperature, Crystal 3 [K]
[1] | – | – | – | 104 °C and 104.6 °C | 304.5 K and 304.5 K | 194.4
[2] | 6.6 kcal/mol and 6.5 kcal/mol | 0.232 kcal/mol and 0.237 kcal/mol | 0.457 | – | – | –

[3]
Details | molar heat capacity at constant pressure [J/K/mol]
183 K, Crystal 3 | 164.7
188 K, Crystal 3 | 169
193 K, Crystal 3 | 174.2
198 K, Crystal 2 | 180.6
203 K, Crystal 2 | 189.7
208 K, Crystal 2 | 197.1
213 K, Crystal 2 | 204.6
218 K, Crystal 2 | 213.2
223 K, Crystal 2 | 224.4
228 K, Crystal 2 | 228.2
233 K, Crystal 2 | 232.8
238 K, Crystal 2 | 234.3
243 K, Crystal 2 | 235.1
248 K, Crystal 2 | 236.3
253 K, Crystal 2 | 233.9
258 K, Crystal 2 | 236.1
263 K, Crystal 2 | 238.3
268 K, Crystal 2 | 235.4
273 K, Crystal 2 | 241.2
278 K, Crystal 2 | 242.7
283 K, Crystal 2 | 243.9
288 K, Crystal 2 | 244.9
293 K, Crystal 2 | 246.5
298 K, Crystal 2 | 245.1
303 K, Crystal 2 | 246.7
308 K, Crystal 1 | 249.3
313 K, Crystal 1 | 251.8

CCCCC(N)=O [pentanamide]
Details | Molar enthalpy of transition or fusion, Crystal 1 | Molar enthalpy of transition or fusion, Crystal 2 | Molar enthalpy of transition or fusion, Crystal 3 [kcal/mol] | Normal melting temperature, Crystal 1 | Triple point temperature, Crystal 2 | Triple point temperature, Crystal 3 [K]
[1] | – | – | – | 104.1 °C and 103.6 °C | 365 K and 365.4 K | 211.8
[2] | 4.28 kcal/mol and 4.61 kcal/mol | 0.287 kcal/mol and 0.253 kcal/mol | 0.454 | – | – | –

[3]
Details | molar heat capacity at constant pressure [J/K/mol]
183 K, Crystal 3 | 111.5
188 K, Crystal 3 | 116.1
193 K, Crystal 3 | 118.5
198 K, Crystal 3 | 122.5
203 K, Crystal 3 | 128.9
208 K, Crystal 3 | 133.1
213 K, Crystal 2 | 139.1
218 K, Crystal 2 | 145.1
223 K, Crystal 2 | 154
228 K, Crystal 2 | 162.5
233 K, Crystal 2 | 175
238 K, Crystal 2 | 183.4
243 K, Crystal 2 | 195.4
248 K, Crystal 2 | 200.8
253 K, Crystal 2 | 199.8
258 K, Crystal 2 | 196.2
263 K, Crystal 2 | 191.6
268 K, Crystal 2 | 185.8
273 K, Crystal 2 | 189.4
278 K, Crystal 2 | 187.1
283 K, Crystal 2 | 188.4
288 K, Crystal 2 | 188.4
293 K, Crystal 2 | 190
298 K, Crystal 2 | 190.3
303 K, Crystal 2 | 192.6
308 K, Crystal 2 | 196.4
313 K, Crystal 2 | 198.4
318 K, Crystal 2 | 202.5
323 K, Crystal 2 | 204.5

CCC(N)=O [propanamide]
Crystal
Details | Molar enthalpy of transition or fusion [kcal/mol] | Normal melting temperature [°C]
[1] | – | 79.5
[2] | 3.08 | –
